Consider 21 molecules from patent publication US11981752B2, “Tumor associated monocyte/macrophage binding peptide and methods of use thereof” (Sanford Burnham Prebys Medical Discovery Institute, priority 2017, dated 2024).

Entries after “also recorded” stand apart in the source; their conditions may differ. Read-outs that look alike come from different tables or passages of the source. Bridge positions count the residues as written; N and C are the ends. Ends that are not written are not given here.

Series [1] has as its system J774A.1 cells. The series can be described thus: Phage display screening (CX7C T7 library) on J774A.1 cells. The settings on record: high throughput sequencing of phage clones bound to J774A.1 cells after three rounds of enrichment; terminal cysteines omitted.
In series [2] the test system is other kinases (named per endpoint). The settings on record: cited from earlier work.
The target of a further series is PI3Kγ (Homo sapiens, UniProt P48736). The note with it: cited from earlier work.
The next series concerns class I PI3K isoforms. The settings on record: cited from earlier work.
The test system of series [3] is macrophages in atherosclerosis plaques. The note with it: ApoE null mice fed high fat diet (She et al. 2016); cited from earlier work.
The next series deals with tumor. The note with it: systemic treatment of mice; cited from earlier work.
A further series relates to atherosclerotic plaque. The note with it: systemic treatment of mice; cited from earlier work.
The target in another series is PI3Kδ (Homo sapiens, UniProt O00329). The note with it: cited from earlier work.
The next series deals with mTOR (Homo sapiens, UniProt P42345). The note with it: cited from earlier work.
Another series concerns the target PI3Kβ (Homo sapiens, UniProt P42338). The settings on record: cited from earlier work.
Another series deals with ATR (Homo sapiens, UniProt Q13535). The settings on record: cited from earlier work.
Series [4] deals with J774A.1 cells. Kind of series: In vitro peptide binding, flow cytometry, J774A.1. In kind it is cell-based, mouse. How it is done:
(§1) J774A.1 and RAW264.7 cells were obtained from ATCC. Cells were maintained in Dulbecco's Modified Eagle Medium supplemented with 10% fetal bovine serum, 1% Glutamine-Pen-Strep and […].
(§2) Cells were incubated on a rotator with peptides added at a final concentration of 10 μM in DMEM plus 1% BSA. For inhibition studies, biotin-CRV was added to a final concentration of 500 μM together with FAM-CRV (10 μM final). After 1 h at 4° C., cells were washed 3 times with PBS followed by flow cytometry analysis.
(§3) The peptide corresponding to the sequence of the top clone: […] (referred to as CRV herein; SEQ ID NO:1) was then synthesized. A green carboxy-fluorescein label (FAM) was added to the N-terminus of CRV to aid detection. CRV binding to two macrophage cell lines, J774A.1 and Raw264.7 was tested. Control peptides used were ARA ([…]; SEQ ID NO:8) and […] (SEQ ID NO:9).
(A flow cytometer gives signals particle by particle.)

The next series relates to Raw264.7 cells. Kind of series: In vitro peptide binding, flow cytometry, Raw264.7. In kind it is cell-based. The settings on record: FAM-labeled peptide 10 μM, 1 h at 4° C., controls ARA, GGSGGSKG
How it is done: as §1, §2, §3

The test system of a further series is 4T1 breast tumors. The series can be described thus: In vivo peptide homing in mice bearing orthotopic 4T1 breast tumors. The settings on record: 1 hour. How it is done: (§4) To produce 4T1 tumors, 1×10^6 4 T1 cells (ATCC) suspended in 100 μl of PBS were injected into the mammary fat pad of wild type Balb/c female mice. C57BL/6 mice bearing atherosclerosis plaques were generated as previously described (She et al., Journal of Controlled Release 238:212-20 (2016)). Animal experimentation was performed according to the procedures approved by the Animal Research Committee at the Sanford-Burnham Medical Research Institute.
(§5) Orthotopic 4T1 tumors were used when they reached 0.5-1 cm in size. For tumor or plaque homing, 200 μg FAM-labeled peptide dissolved in 100 μl PBS was injected intravenously into mice. After 1 hour of circulation, the mice were euthanized by cardiac perfusion with PBS under anesthesia, and tumors and other organs (or plaques on the aorta) were dissected and analyzed for peptide homing.
In vivo tissue distribution of CRV peptide in tumor mice was investigated. FAM-CRV was injected intravenously into mice bearing 4T1 breast tumors. After 1 hour, perfusion through the heart was performed to eliminate any circulating peptide. Heart, lung, liver, kidney, spleen, and tumor were excised and the FAM-CRV signal was imaged with an illuminator.
CRV homing in tumor mice was investigated. Mice with orthotopic 4T1 breast tumors (n=2) were intravenously injected with 100 μg of CRV peptide labeled with a green fluorophor (FAM). The peptide was allowed to circulate for 1 hour, and the mice were perfused through the left ventricle of the heart to eliminate any peptide remaining in the blood. Major organs were excised and examined under visible and fluorescent light.

Series [5] has as its system cells isolated from 4T1 tumors. Kind of series: Ex vivo binding of FAM-CRV to cells isolated from 4T1 tumors. In kind it is cell-based, mice. The note with it: FAM-CRV 10 μM, 1-hour at 4° C., flow cytometry. How it is done:
To determine the identity of the cells that FAM-CRV localized in within the tumors, ex vivo binding of FAM-CRV to cells isolated from tumors was studied. Tumors were excised from mice bearing 4T1 breast cancer and dissociated into single cell populations using MACS dissociation kit according to the manufacturer's instructions. FAM-CRV was added to a final concentration of 10 μM into a solution of DMEM+1% BSA containing 2 million tumor cells. After 1-hour incubation at 4° C., cells were stained with various immune cell markers. The markers tested include: CD11b (pan-monocyte/macrophage marker), Ly6-G (granulocytic monocyte), CCR2 (infiltrating monocytes), F4/80, CD4 (helper T cells), CD8 (cytotoxic T cells). Cells were stained for the indicated markers and subjected to flow cytometry analysis. The analysis was performed using antibodies to the indicated macrophage markers on CRV-positive cells.

Series [6] concerns macrophages in atherosclerosis plaques. Kind of series: In vivo homing to atherosclerosis plaques. Also on record: species or system mice. The settings on record: 200 μg FAM-labeled peptide intravenously, 1 hour of circulation. How it is done: as §4, §5
Therefore, whether CRV also binds to macrophages in this model was investigated. 200 μg FAM-labeled peptide or control peptide ARA, each dissolved in 100 μl PBS, was injected intravenously into mice. After 1 hour of circulation, the mice were euthanized by cardiac perfusion with PBS under anesthesia, and tumors and other organs (or plaques on the aorta) were dissected and imaged with illuminator for FAM signal.

Series [7] has as its system macrophages in sites of infection. The series can be described thus: Targeting of macrophages in sites of infection. Type of series: in vivo. The note with it: microbial, viral, or bacterial infection; no method given.
A further series concerns the target DNA-PK (Homo sapiens, UniProt P78527). The settings on record: cited from earlier work.

Chain of PI3Kγ (P48736 whole entry, species assumed, canonical isoform): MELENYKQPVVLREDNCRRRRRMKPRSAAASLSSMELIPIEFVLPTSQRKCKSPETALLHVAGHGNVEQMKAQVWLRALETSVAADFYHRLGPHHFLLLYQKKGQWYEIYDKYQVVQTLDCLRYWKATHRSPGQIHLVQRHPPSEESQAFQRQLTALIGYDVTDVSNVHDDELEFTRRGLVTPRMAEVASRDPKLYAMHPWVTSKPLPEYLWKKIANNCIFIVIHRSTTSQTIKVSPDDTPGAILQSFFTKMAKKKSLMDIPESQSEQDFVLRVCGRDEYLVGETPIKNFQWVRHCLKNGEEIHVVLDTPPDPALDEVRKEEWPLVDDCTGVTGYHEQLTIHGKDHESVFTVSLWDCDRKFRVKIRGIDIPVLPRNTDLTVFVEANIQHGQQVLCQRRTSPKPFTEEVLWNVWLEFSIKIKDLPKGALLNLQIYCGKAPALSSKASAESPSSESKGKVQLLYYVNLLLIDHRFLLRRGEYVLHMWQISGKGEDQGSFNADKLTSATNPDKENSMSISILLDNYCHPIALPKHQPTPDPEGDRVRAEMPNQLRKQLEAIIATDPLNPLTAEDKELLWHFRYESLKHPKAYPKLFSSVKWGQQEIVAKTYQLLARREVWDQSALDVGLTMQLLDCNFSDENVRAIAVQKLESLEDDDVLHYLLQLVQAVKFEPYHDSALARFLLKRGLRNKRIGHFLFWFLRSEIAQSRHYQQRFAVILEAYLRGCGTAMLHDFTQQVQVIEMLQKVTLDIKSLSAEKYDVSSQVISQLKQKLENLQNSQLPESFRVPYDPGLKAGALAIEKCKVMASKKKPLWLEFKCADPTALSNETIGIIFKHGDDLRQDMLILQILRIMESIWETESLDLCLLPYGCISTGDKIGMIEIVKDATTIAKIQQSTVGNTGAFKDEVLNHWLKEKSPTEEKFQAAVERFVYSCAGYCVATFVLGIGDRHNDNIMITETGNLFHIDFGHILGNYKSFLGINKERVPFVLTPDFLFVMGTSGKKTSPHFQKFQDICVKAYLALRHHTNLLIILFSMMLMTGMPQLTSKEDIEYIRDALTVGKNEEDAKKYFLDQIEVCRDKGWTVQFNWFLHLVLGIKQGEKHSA
Chain of PI3Kδ (O00329 whole entry, species assumed): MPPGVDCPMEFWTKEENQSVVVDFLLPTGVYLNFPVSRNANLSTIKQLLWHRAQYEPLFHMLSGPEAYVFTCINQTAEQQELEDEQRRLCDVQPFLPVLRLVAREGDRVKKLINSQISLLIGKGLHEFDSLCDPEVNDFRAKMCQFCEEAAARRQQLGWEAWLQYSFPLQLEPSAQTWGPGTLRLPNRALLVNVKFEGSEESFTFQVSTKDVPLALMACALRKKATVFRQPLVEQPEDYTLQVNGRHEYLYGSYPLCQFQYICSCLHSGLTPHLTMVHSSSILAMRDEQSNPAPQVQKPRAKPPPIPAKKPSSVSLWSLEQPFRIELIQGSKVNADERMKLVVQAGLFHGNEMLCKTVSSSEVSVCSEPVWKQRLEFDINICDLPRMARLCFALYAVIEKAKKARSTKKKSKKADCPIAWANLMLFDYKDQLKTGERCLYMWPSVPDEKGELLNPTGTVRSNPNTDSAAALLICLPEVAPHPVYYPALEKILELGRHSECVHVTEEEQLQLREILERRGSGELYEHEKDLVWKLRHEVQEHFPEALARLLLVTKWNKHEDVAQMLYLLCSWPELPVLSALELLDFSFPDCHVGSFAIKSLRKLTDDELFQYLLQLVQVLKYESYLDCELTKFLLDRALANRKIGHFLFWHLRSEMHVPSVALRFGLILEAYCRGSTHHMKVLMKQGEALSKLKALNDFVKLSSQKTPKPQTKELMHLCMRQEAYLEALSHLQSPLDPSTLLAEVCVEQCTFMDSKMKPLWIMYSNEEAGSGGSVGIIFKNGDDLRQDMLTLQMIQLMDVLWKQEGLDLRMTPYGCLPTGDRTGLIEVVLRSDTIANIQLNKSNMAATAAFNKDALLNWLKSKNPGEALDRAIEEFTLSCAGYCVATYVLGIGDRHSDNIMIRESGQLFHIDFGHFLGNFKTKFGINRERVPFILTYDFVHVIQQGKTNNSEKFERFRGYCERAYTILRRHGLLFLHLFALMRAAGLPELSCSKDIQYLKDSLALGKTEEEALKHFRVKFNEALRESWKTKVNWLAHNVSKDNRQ
Chain of PI3Kδ (P27986 whole entry partner, species assumed): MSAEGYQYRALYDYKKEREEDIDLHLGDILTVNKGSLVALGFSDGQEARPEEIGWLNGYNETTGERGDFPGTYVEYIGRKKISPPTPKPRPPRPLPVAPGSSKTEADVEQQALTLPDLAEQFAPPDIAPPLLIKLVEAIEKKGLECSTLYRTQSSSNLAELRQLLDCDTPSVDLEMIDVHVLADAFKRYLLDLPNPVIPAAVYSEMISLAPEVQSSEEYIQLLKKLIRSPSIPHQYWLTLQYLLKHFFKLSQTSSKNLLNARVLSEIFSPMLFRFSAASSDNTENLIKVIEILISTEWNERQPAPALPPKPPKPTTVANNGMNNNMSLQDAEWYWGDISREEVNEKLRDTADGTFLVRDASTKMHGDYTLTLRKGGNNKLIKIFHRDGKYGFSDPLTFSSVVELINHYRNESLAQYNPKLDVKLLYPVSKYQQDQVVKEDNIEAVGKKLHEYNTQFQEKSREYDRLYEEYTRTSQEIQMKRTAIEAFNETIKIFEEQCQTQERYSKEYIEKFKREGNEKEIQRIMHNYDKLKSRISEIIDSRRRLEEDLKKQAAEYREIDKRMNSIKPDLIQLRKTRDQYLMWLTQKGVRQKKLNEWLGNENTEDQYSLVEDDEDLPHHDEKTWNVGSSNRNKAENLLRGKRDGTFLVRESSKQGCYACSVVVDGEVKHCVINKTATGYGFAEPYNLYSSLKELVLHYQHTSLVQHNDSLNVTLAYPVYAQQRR
Chain of PI3Kβ (P42338 whole entry, species assumed): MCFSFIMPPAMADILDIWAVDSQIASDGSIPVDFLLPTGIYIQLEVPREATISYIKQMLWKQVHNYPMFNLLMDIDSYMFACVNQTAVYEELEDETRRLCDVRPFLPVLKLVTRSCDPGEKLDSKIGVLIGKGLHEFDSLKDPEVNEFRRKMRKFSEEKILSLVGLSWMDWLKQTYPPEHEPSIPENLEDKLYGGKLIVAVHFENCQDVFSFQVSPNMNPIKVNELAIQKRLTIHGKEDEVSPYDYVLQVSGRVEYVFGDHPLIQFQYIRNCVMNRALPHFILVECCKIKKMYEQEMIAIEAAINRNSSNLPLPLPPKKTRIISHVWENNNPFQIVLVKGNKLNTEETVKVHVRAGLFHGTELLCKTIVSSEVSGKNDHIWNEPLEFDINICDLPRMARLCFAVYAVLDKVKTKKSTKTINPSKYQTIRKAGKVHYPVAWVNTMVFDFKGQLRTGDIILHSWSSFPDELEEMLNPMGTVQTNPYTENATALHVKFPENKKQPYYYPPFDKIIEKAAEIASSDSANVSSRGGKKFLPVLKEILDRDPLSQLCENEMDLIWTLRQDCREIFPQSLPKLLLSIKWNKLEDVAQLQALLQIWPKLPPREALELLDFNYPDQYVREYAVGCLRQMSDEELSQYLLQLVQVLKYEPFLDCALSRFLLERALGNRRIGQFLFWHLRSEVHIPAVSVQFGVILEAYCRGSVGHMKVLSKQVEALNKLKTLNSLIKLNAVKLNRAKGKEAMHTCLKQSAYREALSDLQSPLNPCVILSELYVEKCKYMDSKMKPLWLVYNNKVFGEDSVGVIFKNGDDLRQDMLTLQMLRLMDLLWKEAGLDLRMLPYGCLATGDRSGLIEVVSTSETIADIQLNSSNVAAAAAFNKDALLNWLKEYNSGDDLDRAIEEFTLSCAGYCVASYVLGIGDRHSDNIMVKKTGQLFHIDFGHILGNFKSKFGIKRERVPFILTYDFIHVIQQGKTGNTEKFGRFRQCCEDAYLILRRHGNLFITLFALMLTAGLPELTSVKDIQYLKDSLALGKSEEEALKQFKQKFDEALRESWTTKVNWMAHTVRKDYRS
Chain of PI3Kβ (P27986 whole entry partner, species assumed): as the sequence (P27986 whole entry partner, species assumed) above

In turn, RVLRSGS gave a Count in the series on J774A.1 cells [1] of 63428.
Take `CCn1c(=O)c(-c2cc[nH]n2)cc2c(C)nc(N)nc21` [SAR245409]: in [2], the “inhibition of DNA-PK and mTOR” value was “also inhibits DNA-PK and mTOR. Phase 1/2”.
Take `O=C1NC(=O)C(=Cc2ccc(-c3ccc(F)cc3)o2)S1` (stereo in doubt) [CAY10505]: the IC50 on PI3Kγ is 33 nM.
Turning to GGASIT, the Count in the series with J774A.1 cells [1] is 8677.
In the case of `FC(F)c1nc2ccccc2n1-c1nc(N2CCOCC2)nc(N2CCOCC2)n1` [ZSTK474], in the series on class I PI3K isoforms (read-out: IC50 for PI3K isoforms stated together (PI3Kα/β/δ/γ; class I PI3K isoforms)), the IC50 is 37 nM.
Take `COc1ccc(-c2cc3c(C)nc(N)nc3n([C@H]3CC[C@H](OCCO)CC3)c2=O)cn1` [PF-04691502]: in [2], the “activity against Vps34, AKT, PDK1, p7056K, MEK, ERK, p38, or JNK” value is reported as “nM, little activity against either Vps34, AKT,”.
In the series on J774A.1 cells [1], GRLLRSG registered a Count of 9124.
In the case of “CGNKRTRGC (also: cyclic, kind and places not given here) [LyP-1, receptor is cell surface protein p32]”, the “homing to / recognition of macrophages in atherosclerosis plaques” value in [3] is “homes to macrophages residing in atherosclerosis plaques; also recorded: recognizes macrophages both in tumors and atherosclerotic plaques”. In addition, the tumor growth entry in the series on tumor is on record as “slows down tumor growth”. The atherosclerotic plaque result with atherosclerotic plaque is “reduces atherosclerotic plaque”.
As for `Cc1ccccc1-n1c(Cn2ncc3c(N)ncnc32)nc2cccc(C)c2c1=O` [PIK-293], the IC50 on PI3Kγ is 10000 nM; on PI3Kδ, 240 nM.
In the case of `CCn1nnc2c(N3CCOCC3)nc(-c3ccc(NC(=O)Nc4ccc(C(=O)N5CCN(C)CC5)cc4)cc3)nc21` [PKI-402], the IC50 at mTOR is 3 nM; on PI3Kβ, 7 nM.
Consider `Fc1ccc2[nH]ccc2c1-c1nc(N2CCOCC2)c2sc(CN3CCN(CC4CC4)CC3)cc2n1` [PI-3065], for which the selectivity ratio on PI3Kδ was more than 70.
In the case of RSGLRSS, the Count in the series on J774A.1 cells [1] is on record as 9519.
As for GRMLRSG, in the series with J774A.1 cells [1], the Count was 8922.
For `Cn1c(=O)n(-c2ccc(C(C)(C)C#N)cc2)c2c3cc(-c4cnc5ccccc5c4)ccc3ncc21` [BEZ235, Dactolisib], at ATR, the IC50 is 21 nM. For the same molecule, the “inhibition of Akt and PDK1” value in series [2] is “be a poor inhibitor to Akt and PDK1. Phase 2”.
Turning to “CRVLRSGSC (disulfide 1-9 (inferred); also: FAM or biotin label) [TAM-homing peptide; tested with N-terminal FAM label (FAM-CRV) or biotin label (biotin-CRV)]”, the “binding to J774A.1 cells versus control peptides” value with J774A.1 cells [4] (FAM-labeled peptide 10 μM, 1 h at 4° C., flow cytometry, controls ARA, GGSGGSKG) was “higher binding”. The “effect of excess biotin-labeled CRV on binding of FAM-CRV to J774A.1 cells” value with J774A.1 cells [4] (biotin-CRV 500 μM (50-fold excess), FAM-CRV 10 μM) is on record as “inhibited the binding”. In addition, the “binding to Raw264.7 cells versus control peptides” value in the series on Raw264.7 cells was “higher binding”. For the same molecule, the “localization in tumor sections (fluorescence microscopy)” value with 4T1 breast tumors (100 μg FAM-labeled peptide intravenously) is “lack of co-localization of CRV with the blood vessel marker CD31; also recorded: entered into the extravascular compartment of the tumor; also recorded: Partial co-localization of CRV with the macrophage marker F4/80; also recorded: localizes in a CD45 leukocyte-rich tumor area; also recorded: co-localizes with macrophages having the macrophage markers F4/80 and with lymphatic vessels in tumors”. Also, the “organ fluorescence after injection of FAM-labeled peptide” value with 4T1 breast tumors (100 μg intravenously, perfusion, n=2) is “tumors were positive for peptide fluorescence; also recorded: Some fluorescence was seen in one lung; also recorded: kidneys were positive; also recorded: preferentially homes to tumors”. Besides, the “in vivo tissue distribution (FAM signal of excised organs)” value with 4T1 breast tumors (FAM-CRV intravenously, perfusion, heart, lung, liver, kidney, spleen, tumor) is “mainly found in the tumors and the kidneys, with trace amounts or none in the liver, spleen, lungs and heart”. In series [5], the “binding to different subtypes of CD11b+ cells (CD11b+Ly-6G+ vs. CD11b+Ly-6G-)” value is “binds equally well” and the “share of CRV-positive cells that are CD11b+ cells” value is recorded as approximately 80%. For the same molecule, the “homing to atherosclerosis plaques” value in series [6] was “does not home to plaques; also recorded: recognizes macrophages in tumors but not in atherosclerotic plaques”. Further, the “ability of the host to clear the infection” value in [7] was “markedly increased ability of the host to clear the infection”.
Consider `O=c1c(O)c(-c2ccc(O)c(O)c2)oc2cc(O)cc(O)c12` [Quercetin], for which, in the series with class I PI3K isoforms (isoform not stated, read-out: PI3K IC50), the IC50 was 2400 to 5400 nM.
In the series with J774A.1 cells [1], SVAYD gave a Count of 10187.
In the series with J774A.1 cells [1], SVGRSMRS came in with a Count of 7916.
In the case of GGRVLRS, the Count in the series with J774A.1 cells [1] stood at 62028.
On to `Cc1ccc([N+](=O)[O-])cc1S(=O)(=O)N(C)/N=C/c1cnc2ccc(Br)cn12` [PIK-75], for which the IC50 at DNA-PK was 2 nM; at PI3Kγ, 76 nM.
GRVLRSS registered a Count with J774A.1 cells [1] of 6774.
